Results taken from US20240317792A1, “CYCLIC DINUCLEOTIDE METAL COMPOUND, AND PREPARATION AND APPLICATION THEREOF” (HANGZHOU XINGAO BIOTECHNOLOGY CO., LTD., priority 2022, published 2024).

Key:
[1] = test system: IRI mice (male SD mice); assay: Cerebral ischemia-reperfusion injury (IRI) model, TTC dyeing; format: in vivo; conditions: 2 h ischemia, 24 h reperfusion; caudal vein injection 5 mg/kg (Edaravone 6 mg/kg) after 30 min ischemia
Protocol: Experimental animals: healthy male mice, weighing 280-300 grams, purchased from Shanghai SLAC Laboratory Animal Co. Ltd, with quality certificate No. (SCXK (Shanghai) 2007-0005), and kept in clean animal houses.
Establishment of a mouse cerebral ischemia model of mice and experimental method: 280-300 grams of male […] mice were selected for experiments. The male SD mice were subjected to fasting without water deprivation for 12 h before operation followed by weighing, numbering and random grouping. The male SD mice were anesthetized by intraperitoneal injection of 10 wt. % chloral hydrate at a dosage of 0.3 mL/100 g. After the male SD mice had no pain reflexes, they were subjected to neck skin preparation followed by being fixed on a dissecting table in supine position. After neck skins were disinfected with sterilized cotton balls, about 1 cm of the neck skins were cut in mid-cervical to expose subcutaneous tissues, and subcutaneous fat and the fascia were bluntly plucked with curved tweezers to expose neck muscle groups. The common carotid arteries and their upwardly internal and external carotid branches were visualized by opening the digastric muscle. The external, internal, and common carotid arteries were carefully dissected, and a thin wire was threaded under each of the three arteries, and homemade plastic spacers were placed under the common carotid arteries. The external carotid arteries and proximal ends of the common carotid arteries were ligated. After the internal common carotid arteries were clamped by arterial clips, the common carotid arteries were stuck into with homemade curved hooks followed by picking up and leading in monofilaments. The spacers were removed, and the monofilaments were gently pushed into the internal common carotid arteries and craniums. […] At this time, blood supplies of the middle cerebral arteries from the anterior cerebral arteries were blocked. Thin wires under the internal carotid arteries were ligated to secure the monofilaments to prevent the monofilaments from retreating. Excess thin wires were cut, penicillin was applied to wounds to prevent infection. The male SD mice were sutured and placed under a warm lamp to keep warm. Timing was performed when blood flows of the middle cerebral arteries were blocked by the monofilaments. After 2 hours, the monofilaments were gently pulled out and the black marks were seen, then reperfusion can be achieved.
Triphenyl tetrazolium chloride (TTC) dyeing: After being injured by 2 h cerebral ischemia and 24 h reperfusion, the male SD mice were anesthetized with 0.3 mL/100 g dosage of 10 wt. % of chloral hydrate by intraperitoneal injection and subjected to abdominal aorta bleeding to reduce influence of blood in brains. Then whole heads of the male SD mice were removed immediately after decapitating, and washed with normal saline followed by being promptly put into a −20° C. refrigerator to freeze for 20 min. Frozen brains were collected and subjected to coronal sections, each 2 mm of thickness, by a blade. Then the coronal sections were subjected to dark dyeing in a 2 wt. % of TTC solution for 20 min and fixing in a 4 wt. % of polyformaldehyde solution for 6 h followed by photographing. Then, Photoshop software was used to define area and calculate, and a formula was represented as a percentage of cerebral ischemic area=a total area of white area/a total area of ischemic hemisphere×100%.
Drug preparation and experimental grouping: Edaravone was used as a positive control drug, and an Edaravone injection was 30 mg/20 mL. A single dosage for each of the male SD mice was 0.4 mL/100 g, that is, 6 mg/kg. The cyclic dinucleotide metal compounds prepared in Examples 1-5 were prepared into […] injection drugs with the normal saline. Each of the male SD mice was subjected to caudal vein injection with 0.4 mL/100 g dosage of drugs, that is, 5 mg/kg. The male SD mice were divided into 8 groups (10 mice in each group). […]

[2] = test system: IFN-β; assay: IFN-β content in blood induced by the compounds, over time by ELISA; format: in vivo; conditions: SD mice serum, sampled 0-24 h, peak of concentration change curve
Protocol: Experimental animals: SD mice, weighing 200-220 g, were purchased from Shanghai SLAC Laboratory Animal Co. Ltd.
Main test steps: The SD mice were randomly divided into 7 groups (10 mice in each group). The 7 groups were listed as follows: blank control group (injection of normal saline); cGAMP group; [Li2(cGAMP)] group; [Mg(cGAMP)] group; [Zn(cGAMP)] group; [Mn(cGAMP)] group; and [Fe(cGAMP)] group. At fixed time points (0 h, 1 h, 2 h, 4 h, 6 h, 8 h, 10 h, 12 h, 14 h, 16 h, 20 h, and 24 h), 1 mL of blood of each of the SD mice was taken through ophthalmic vein by a capillary, placed in a 1.5 mL of centrifuge tube followed by centrifugation for 30 min. Upper serum was collected and stored at −80° C. for use. Concentrations of cGAMP and IFN-β in the serum were determined by ELISA kit. Based on IFN-β induced by activation of innate immunity paths of the cGAMP and the cyclic dinucleotide metal compounds, a content of the IFN-β in the blood was detected, and stability and activation activity of immune path of the cGAMP and the cyclic dinucleotide metal compounds were evaluated. Concentration values (including cGAMP and IFN-β) in blood samples of the SD mice in each group were detected by the ELISA kit, and the concentration values and average values at each time point were calculated. A concentration change curve over time was drawn, and a peak of the concentration change curve was obtained.

| SMILES | Average value of percentage of cerebral ischemic area [1] [%] | Time to peak serum IFN-β concentration [2] [h] |
| --- | --- | --- |
| Nc1nc2c(ncn2C2OC3COP(=O)([O-])OC4C(COP(=O)([O-])OC2C3O)OC(n2cnc3c(N)ncnc32)C4O)c(=O)[nH]1.[Fe+2] (stereo not drawn) [[Fe(cGAMP)], ferrous cyclic dinucleotide] | 26.78 | 5.6 |
| Nc1nc2c(ncn2[C@@H]2O[C@@H]3COP(=O)([O-])O[C@H]4[C@@H](O)[C@H](n5cnc6c(N)ncnc65)O[C@@H]4COP(=O)([O-])O[C@@H]2[C@@H]3O)c(=O)[nH]1.[Li+].[Li+] [[Li2(cGAMP)], lithium cyclic dinucleotide] | 25.25 | 5.6 |
| Nc1nc2c(ncn2[C@@H]2O[C@@H]3COP(=O)([O-])O[C@H]4[C@@H](O)[C@H](n5cnc6c(N)ncnc65)O[C@@H]4COP(=O)([O-])O[C@@H]2[C@@H]3O)c(=O)[nH]1.[Mg+2] [[Mg(cGAMP)], magnesium cyclic dinucleotide] | 18.16 | 5.9 |
| Nc1nc2c(ncn2C2OC3COP(=O)([O-])OC4C(COP(=O)([O-])OC2C3O)OC(n2cnc3c(N)ncnc32)C4O)c(=O)[nH]1.[Mn+2] (stereo not drawn) [[Mn(cGAMP)], manganese cyclic dinucleotide] | 25.56 | 6.0 |
| Nc1nc2c(ncn2[C@@H]2O[C@@H]3COP(=O)([O-])O[C@H]4[C@@H](O)[C@H](n5cnc6c(N)ncnc65)O[C@@H]4COP(=O)([O-])O[C@@H]2[C@@H]3O)c(=O)[nH]1.[Zn+2] [[Zn(cGAMP)], zinc cyclic dinucleotide] | 23.52 | 6.2 |
| Nc1nc2c(ncn2[C@@H]2O[C@@H]3COP(=O)(O)O[C@H]4[C@@H](O)[C@H](n5cnc6c(N)ncnc65)O[C@@H]4COP(=O)(O)O[C@@H]2[C@@H]3O)c(=O)[nH]1 [cGAMP, 2′3′-cGAMP, reference compound] | 26.86 | 4.0 |
